Where two headings read alike, the source gives them in different places.
Assays:
hAR (androgen receptor) = target: T1, hAR (androgen receptor) (Homo sapiens, UniProt P10275); test: Crossreactive receptor transcriptional assay (Gal4 hybrid); assay type: cell-based
T1 construct: 646-919; expressed in transfected cells; host or cells: CHO cells, transient transfection
T1 sequence (P10275 647-920): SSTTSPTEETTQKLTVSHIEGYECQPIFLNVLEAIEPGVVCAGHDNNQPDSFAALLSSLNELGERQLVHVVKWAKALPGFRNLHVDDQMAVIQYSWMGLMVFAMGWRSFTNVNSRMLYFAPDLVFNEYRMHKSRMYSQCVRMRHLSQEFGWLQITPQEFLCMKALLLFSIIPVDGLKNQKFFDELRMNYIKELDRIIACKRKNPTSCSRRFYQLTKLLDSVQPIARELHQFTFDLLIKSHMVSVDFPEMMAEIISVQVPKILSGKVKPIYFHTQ
Description: (§1) A firefly luciferase reporter gene for Gal4 DBD hybrid receptors, such as Gal4-RORγ, contains five copies of the Gal4 17-mer response element in its promoter and the coding sequence for firefly luciferase (pG5-luc, Promega). CHO (Chinese Hamster Ovary) cells were cultured in Ham's F12 medium supplemented with 10% fetal calf serum (Gemini Biologicals), 10 μg/ml penicillin and streptomycin, and were maintained in a humidified 37° C. incubator (Thermo Electron, Steri-Cycle) with 5% CO2. 24 hours before transfection, cells were plated in T175 flasks (5×10^6 cells/flask) or T75 flasks (1.7×10^6 cells/flask). Transient transfection of CHO cells was performed using TransIT-CHO reagents (Minis, Madison, Wis.) with a mixing ratio of 2:6:1 between plasmid DNA (in μg), TransIT-CHO (in μl) and CHO-mojo (in μl).
(§2) Plates are maintained at 37° C. in a humidified atmosphere with 7% CO2 overnight. Four (4) hours after cell seeding, compounds dissolved in DMSO at 10 mM were added to cells at final concentrations of 20 micromolar (μM) to 20 nanomolar (nM) in 0.2% DMSO in triplicate plates. Approximately 40 hours later, cytotoxicity in the assay well was characterized by addition of the dye resazurin (O'Brien, Wilson et al. 2000) to a final concentration of 3 μM. […] Percent viability was determined as 2 hour fluorescence, minus background at t=0 hours, normalized to DMSO controls. For detection of luciferase activity, media was removed from plates after the measurement of resazurin conversion, and SteadyLite luciferase reagent (Perkin-Elmer) was added (30 μl/well). Luminescence is detected with a Victor 2-V plate reader (Perkin-Elmer) and normalized to luciferase activity of DMSO control wells alone.

[1] = target: T2, hPR (progesterone receptor) (Homo sapiens, UniProt P06401); test: as above; assay type: cell-based
T2 construct: 687-933; expressed in transfected cells; host or cells: CHO cells, transient transfection
T2 sequence (P06401 687-933): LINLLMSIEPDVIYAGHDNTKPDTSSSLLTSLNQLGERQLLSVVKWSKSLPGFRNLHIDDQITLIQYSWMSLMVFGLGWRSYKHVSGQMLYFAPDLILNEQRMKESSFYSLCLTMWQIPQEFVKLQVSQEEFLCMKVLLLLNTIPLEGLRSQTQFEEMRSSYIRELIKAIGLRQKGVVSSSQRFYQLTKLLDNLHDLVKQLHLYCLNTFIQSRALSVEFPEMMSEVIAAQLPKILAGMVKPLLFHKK
Description: as §1, §2

mRORγ LBD = target: T3, mRORγ LBD (Mus musculus, UniProt P51450); test: Biochemical assay, coregulatory peptide recruitment to GST-RORγ LBD (FRET)
T3 construct: made in house; host or cells: Sf9 insect cells, baculovirus; cleared lysate used directly
T3 sequence (P51450 251-516): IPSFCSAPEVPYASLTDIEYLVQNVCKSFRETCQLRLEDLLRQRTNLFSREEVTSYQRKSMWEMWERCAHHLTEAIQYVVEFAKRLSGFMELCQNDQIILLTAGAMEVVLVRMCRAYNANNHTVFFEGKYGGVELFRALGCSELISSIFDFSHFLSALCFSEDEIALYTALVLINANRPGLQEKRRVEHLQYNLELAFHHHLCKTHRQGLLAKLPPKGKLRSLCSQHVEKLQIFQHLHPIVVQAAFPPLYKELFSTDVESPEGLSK
Source text: GST-RORγ was generated by subcloning the RORγ-LBD into pET-41a, a vector which expresses GST fusion proteins in bacteria.
The cloning steps for GST-RORγ were as follows. The mRORγ LBD was excised from Gal4-mRORγ (see above for cloning steps) at BamHI and HindIII sites of Sequence 1 and cloned into the corresponding sites of pET-41a(+) (EMD Biosciences, San Diego, Calif.). A GST-mRORγ fragment was then excised from pET-41a(+) at XbaI and XhoI sites and cloned into a pcDNA3.1vector (Invitrogen, Carlsbad, Calif.) restricted at NheI and XhoI sites. Plasmid GST-mRORγ-pcDNA3.1 was used as a PCR template to generate a GST-mRORγ fragment that was later cloned into pENTR/D-TOPO vector (Invitrogen, Carlsbad, Calif.) by standard cloning techniques recommended by the manufacturer of the vector. The nucleotide sequence of GST-mRORγ is shown below:
For baculoviral expression of RORγ, the cDNA fragment of GST-RORγ— LBD, was subcloned from pET-41a into the pENTR/D-TOPO vector using a commercially-available kit (BaculoDirect, Invitrogen). Briefly, GST-RORγ carried by pENTR/D-TOPO was transfected into mono-layer Sf9 cells (8×10^5/well in 6-well plates) by Cellfectin (Invitrogen). Sf9 cells were incubated at 27° C. in a non-humidified incubator for 72 hours. Cell media was collected as P1 viral stock and used to further infect Sf9 cells to generate P2 and P3 virus. […] A plaque assay was performed to determine the titer of P3 virus and to isolate single plaques. P4 virus was generated from a single plaque and propagated on a larger scale.
Adherent SF9 cells were infected with baculovirus carrying GST-RORγ and were cultured for 72 hours. Sf9 cell were then subject to a brief sonication in a lysis buffer (20 mM phosphate, pH 6.8, 50 mM KCl, 50 mM NaCl, 0.5 mM EDTA, 50% glycerol, 0.001% NP-40 and 1 mM DTT) and centrifuged at 3000 rpm for 15 minutes. […] Cleared cell lysate was stored at −70° C. and is directly utilized in the coregulatory peptide recruitment assay.
The labeled probes anti-GST-APC and SA-RPE were purchased from Prozyme (San Leandro, Calif.). Compounds were added directly from a DMSO solution to a final concentration of 1-2% DMSO. Fluorescence was measured on a Wallac Victor 2 V plate reader equipped with a 670/40 nm filter (Omega Optical, Brattleboro, Vt.) for APC emission (Channel A) and a 600/25 bandpass filter for monitoring the RPE emission (Channel B).

[2] = Table 6, read-out: Potency (EC50) at hAR
[3] = Table 6, read-out: Potency (EC50) at hPR
[4] = Table 4A, peptide K1, no agonist present, medians of two or more assays, unit inferred, read-out: EC50 Biochemical

Structure (SMILES)	EC50 (hAR (androgen receptor); [2]) [µM]	EC50 [1, 3] [µM]	EC50 (mRORγ LBD; [4]) [µM]	also measured
COC(C)CCC(C)C1CCC2C3CC(O)C4CC(O)CCC4(C)C3CCC12C (stereo not shown) [OR-12872, 17-(4-Methoxy-1-methyl-pentyl)-10,13-dimethyl-hexadecahydro-cyclopenta[a]phenanthrene-3,6-diol]	> 10	> 10	–	EC50 (mRORγ LBD; Table 2, agonists, biotinylated peptide K, 50% of estimated maximum FRET signal, read-out: EC50 in micromolar at mRORγ Biochemical): 0.052 µM; EC50 (mRORγ LBD; agonist, read-out: potency in the biochemical assay): < 0.1 µM
CCN(c1ccc(C(O)(C(F)(F)F)C(F)(F)F)cc1)S(=O)(=O)c1ccc([N+](=O)[O-])cc1 [OR-1050, N-Ethyl-4-nitro-N-[4-(2,2,2-trifluoro-1-hydroxy-1-trifluoromethyl-ethyl)-phenyl]-benzenesulfonamide]	> 10	> 10	–	EC50 (mRORγ LBD; Table 1, mRORγ and peptide K1, read-out: Assay EC50 in micromolar at mRORγ Biochemical): 0.9 µM; EC50 (mRORγ LBD; Table 7, taken from Table 1 (peptide K1), read-out: Assay EC50 in micromolar at mRORγ Biochemical): 0.9 µM
CCn1c(CNc2ccc(Cl)cc2)nnc1SCC(=O)Nc1cccc2ccccc12 [OR-133008, 2-{5-[(4-Chloro-phenylamino)-methyl]-4-ethyl-4H-[1,2,4]triazol-3-ylsulfanyl}-N-naphthalen-1-yl-acetamide]	> 10	> 10	1.61	–
CC(=O)O[C@H]1CC[C@@]2(C)C(CC[C@]3(C)C2C(=O)C=C2C4[C@@H](C)[C@H](C)CC[C@]4(C(=O)O)CC[C@]23C)C1(C)C (stereo in doubt) [OR-13571, 10-Acetoxy-1,2,6a,6b,9,9,12a-heptamethyl-13-oxo-1,3,4,5,6,6a,6b,7,8,8a,9,10,11,12,12a,12b,13,14b-octadecahydro-2H-picene-4a-carboxylic acid]	> 10	> 10	1.2	–
C[C@@H]1CC[C@@]2(OC1)O[C@H]1C[C@H]3[C@@H]4CC[C@H]5C[C@@H](O)CC[C@]5(C)[C@H]4C[C@@H](O)[C@]3(C)[C@H]1[C@@H]2C [OR-885, 5α,20α, 22α, 25D-SPIROSTAN-3β, 12β-DIOL]	–	–	–	EC50 (hAR (androgen receptor)): > 10 µM; EC50 [1]: > 10 µM; EC50 (mRORγ LBD): 2.5 µM
O=S(=O)(c1ccccc1)N(CC(F)(F)F)c1ccc(C(O)(C(F)(F)F)C(F)(F)F)cc1 [Compound T0901317, N-(2,2,2-Trifluoro-ethyl)-N-[4-(2,2,2-trifluoro-1-hydroxy-1-trifluoromethyl-ethyl)-phenyl]-benzenesulfonamide, reference compound]	> 10	> 10	–	–
COc1c(C=NNc2nc(N3CCCCC3)nc(N3CCCCC3)n2)cccc1[N+](=O)[O-] [OR-2161, N-(4,6-Di-piperidin-1-yl-[1,3,5]triazin-2-yl)-N′-(2-methoxy-3-nitro-benzylidene)-hydrazine]	> 10	> 10	4.5	–

Reference: patent US8389739B1, “Modulators of retinoid-related orphan receptor gamma” (Orphagen Pharmaceuticals, priority 2006, dated 2013)
